Data: ChEMBL document CHEMBL3232996, “Synthesis and biological evaluation of novel (123)I-labeled 4-(4-iodophenyl)butanoyl-L-prolyl-(2S)-pyrrolidines for imaging prolyl oligopeptidase in vivo” (Eur J Med Chem, 2014)

Experiments:
Prolyl endopeptidase [1] = target: Prolyl endopeptidase (Sus scrofa, UniProt P23687); assay: Inhibition of porcine prolyl oligopeptidase using Z-Gly-Pro-AMC as substrate after 60 mins by double-reciprocal plot analysis; settings: read-out: Ki(app)
Prolyl endopeptidase [2] = target: Prolyl endopeptidase (Mus musculus, UniProt Q9QUR6); assay: Competitive inhibition of mouse brain prolyl oligopeptidase; format: tissue-based
Prolyl endopeptidase (Mus musculus, UniProt Q9QUR6), sequence (Q9QUR6 whole entry): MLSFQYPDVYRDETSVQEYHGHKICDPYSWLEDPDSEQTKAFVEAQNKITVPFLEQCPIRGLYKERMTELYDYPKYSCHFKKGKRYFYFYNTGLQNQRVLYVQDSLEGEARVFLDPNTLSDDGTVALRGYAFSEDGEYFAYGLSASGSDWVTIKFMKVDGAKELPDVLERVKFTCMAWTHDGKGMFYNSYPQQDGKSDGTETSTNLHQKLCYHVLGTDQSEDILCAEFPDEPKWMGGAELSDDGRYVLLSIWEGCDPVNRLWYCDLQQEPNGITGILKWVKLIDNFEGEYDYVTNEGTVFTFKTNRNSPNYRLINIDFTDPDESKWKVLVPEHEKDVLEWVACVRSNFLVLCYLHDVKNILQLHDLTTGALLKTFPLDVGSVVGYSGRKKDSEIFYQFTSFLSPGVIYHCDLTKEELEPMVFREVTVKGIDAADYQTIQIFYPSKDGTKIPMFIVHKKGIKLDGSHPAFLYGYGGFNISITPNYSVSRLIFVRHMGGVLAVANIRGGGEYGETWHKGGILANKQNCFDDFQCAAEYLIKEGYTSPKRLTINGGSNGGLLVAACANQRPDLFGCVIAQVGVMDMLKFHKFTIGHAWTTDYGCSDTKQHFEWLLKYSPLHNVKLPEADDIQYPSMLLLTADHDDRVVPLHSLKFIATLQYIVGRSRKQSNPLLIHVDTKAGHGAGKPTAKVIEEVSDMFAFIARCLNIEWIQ

Prolyl endopeptidase (Sus scrofa, UniProt P23687), sequence (P23687 whole entry): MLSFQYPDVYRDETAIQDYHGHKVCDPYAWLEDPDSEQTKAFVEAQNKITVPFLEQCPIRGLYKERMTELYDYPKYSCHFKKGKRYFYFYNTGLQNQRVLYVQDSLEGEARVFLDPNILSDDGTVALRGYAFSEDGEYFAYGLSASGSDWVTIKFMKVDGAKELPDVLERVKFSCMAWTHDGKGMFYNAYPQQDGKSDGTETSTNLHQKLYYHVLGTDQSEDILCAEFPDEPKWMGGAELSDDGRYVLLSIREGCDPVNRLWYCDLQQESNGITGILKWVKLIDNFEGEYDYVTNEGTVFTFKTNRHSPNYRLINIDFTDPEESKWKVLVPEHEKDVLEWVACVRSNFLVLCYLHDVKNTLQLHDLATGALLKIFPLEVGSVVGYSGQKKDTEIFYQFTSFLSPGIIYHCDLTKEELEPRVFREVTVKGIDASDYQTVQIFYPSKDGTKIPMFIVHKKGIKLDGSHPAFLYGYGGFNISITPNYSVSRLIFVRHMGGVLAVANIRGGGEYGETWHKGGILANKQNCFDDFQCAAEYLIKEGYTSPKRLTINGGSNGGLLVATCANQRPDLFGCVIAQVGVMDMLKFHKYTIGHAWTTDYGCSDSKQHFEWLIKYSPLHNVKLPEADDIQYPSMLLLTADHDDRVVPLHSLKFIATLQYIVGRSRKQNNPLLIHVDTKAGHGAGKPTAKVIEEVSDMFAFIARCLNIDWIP

O=C([C@@H]1CCCN1C(=O)CCCc1ccc(I)cc1)N1CCCC1
Ki (Prolyl endopeptidase [1]): 22 nM

[11CH3]Nc1ccc(CCCC(=O)N2CCC[C@H]2C(=O)N2CCCC2)cc1
IC50 (Prolyl endopeptidase [2]): 3.1 nM

N#C[C@@H]1CCCN1C(=O)[C@@H]1CCCN1C(=O)CCCc1ccc(I)cc1
Ki (Prolyl endopeptidase [1]): 4.2 nM
